Like-named read-outs stand apart in the source and are kept apart here.

This passage reports IC50 and inhibition results from patent US20130252930A1 (BIOMARIN PHARMACEUTICAL INC., priority 2010, published 2013).

In experiment [1] the target is T1, Cyp21 enzyme (Human HEK 293-Cyp21 stable transfected cells) (Homo sapiens, UniProt P08686).
T1 construct: expressed in transfected cells
T1 sequence (P08686 1-495): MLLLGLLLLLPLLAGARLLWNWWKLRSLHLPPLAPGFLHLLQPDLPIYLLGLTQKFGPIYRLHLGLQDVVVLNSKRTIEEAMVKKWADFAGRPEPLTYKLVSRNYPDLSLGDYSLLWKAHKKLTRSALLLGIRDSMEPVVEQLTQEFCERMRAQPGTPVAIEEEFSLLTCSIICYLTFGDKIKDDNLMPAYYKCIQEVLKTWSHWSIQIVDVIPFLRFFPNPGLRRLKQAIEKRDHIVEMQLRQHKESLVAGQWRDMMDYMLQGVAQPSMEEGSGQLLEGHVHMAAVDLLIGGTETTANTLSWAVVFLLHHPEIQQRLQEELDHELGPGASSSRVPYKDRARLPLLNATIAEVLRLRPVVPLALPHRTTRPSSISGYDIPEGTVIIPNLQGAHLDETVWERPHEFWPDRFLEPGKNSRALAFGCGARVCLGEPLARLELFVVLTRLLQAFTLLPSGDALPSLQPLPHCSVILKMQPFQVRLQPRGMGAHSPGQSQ
Kind of experiment: CYP21-HEK293 enzymatic assay (IC50) (Biological Example 11). The experiment is classed as cell-based.

Experiment [2] concerns the target T2, CYP17 (human testicular microsome) (Homo sapiens, UniProt P05093).
T2 construct: using microsomal fraction from human testis (Celsis Cat #S00110) as the enzyme source; tissue Celsis S00110; host or cells: human testis microsomal fraction
T2 sequence (P05093 1-508): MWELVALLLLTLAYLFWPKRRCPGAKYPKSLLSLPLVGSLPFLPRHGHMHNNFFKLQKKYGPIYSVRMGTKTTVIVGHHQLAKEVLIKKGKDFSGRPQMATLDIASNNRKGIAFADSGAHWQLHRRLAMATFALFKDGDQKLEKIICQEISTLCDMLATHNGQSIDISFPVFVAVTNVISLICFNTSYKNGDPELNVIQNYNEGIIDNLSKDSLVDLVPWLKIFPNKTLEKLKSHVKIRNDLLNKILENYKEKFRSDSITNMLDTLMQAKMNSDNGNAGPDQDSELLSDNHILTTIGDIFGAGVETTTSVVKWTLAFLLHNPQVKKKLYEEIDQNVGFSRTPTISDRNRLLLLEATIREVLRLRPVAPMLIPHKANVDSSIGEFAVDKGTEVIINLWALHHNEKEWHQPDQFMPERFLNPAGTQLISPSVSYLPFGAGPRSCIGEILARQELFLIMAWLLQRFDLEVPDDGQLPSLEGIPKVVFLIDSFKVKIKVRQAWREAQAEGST
The experiment in a line: CYP17 enzymatic assay (% inhibition at 1 nM) (Biological Example 12). The experiment is classed as biochemical. To be noted: compound at 1 nM.

[3] abbreviates: HEK 293-Cyp21 cells, read-out: Biological Example No. 11: CYP21-HEK293 enzymatic assay IC50.
Setting [4] is: read-out: Biological Example No. 12: CYP17 enzymatic assay % inhibition at 1 nM.
Setting [5] is: HEK 293-Cyp21 cells, read-out: CYP21-HEK293 enzymatic assay IC50 (Biological Example No. 11).
Where [6] appears, read: read-out: CYP17 enzymatic assay % inhibition at 1 nM (Biological Example No. 12).
Where [7] appears, read: HEK 293-Cyp21 stable transfected cells, read-out: CYP21-HEK293 enzymatic assay IC50 (Biological Example No. 11).

Turning to `C[C@]12CC[C@H]3[C@@H](CC(c4ccccc4)C4=CC(=O)CC[C@@]43C)C1=CC=C2c1cccnc1` (stereo partly drawn) [Compound 344, (10R,13S)-10,13-dimethyl-6-phenyl-17-(pyridin-3-yl)-6,7,8,9,10,11,12,13-octahydro-1H-cyclopenta[a]phenanthren-3(2H)-one], in experiment [1] (setting [3]), the IC50 (commonly the concentration needed to halve the response being measured) was greater than 1000 nM. Moreover, in experiment [2] (setting [4]), the inhibition (in general, the percentage by which the read-out fell short of the control) at 0.001 µM is 10 to 50%. `CC1=C2CCC3C4=CC=C(c5cccnc5)[C@@]4(C)CCC3[C@@]2(C)CCC1=O` (stereo partly drawn) [Compound 296, (10R,13S)-4,10,13-trimethyl-17-(pyridin-3-yl)-6,7,8,9,10,11,12,13-octahydro-1H-cyclopenta[a]phenanthren-3(2H)-one]: in experiment [1] (setting [5]), the IC50 was greater than 100 nM. The inhibition at 0.001 µM in experiment [2] (setting [6]) is greater than 50%. Consider `C[C@]12CCC(=O)C=C1C(C1CC1)C[C@@H]1[C@@H]2CC[C@]2(C)C(c3cccnc3)=CC[C@@H]12` (stereo partly drawn) [Compound 339, (10R,13S)-6-cyclopropyl-10,13-dimethyl-17-(pyridin-3-yl)-6,7,8,9,10,11,12,13,14,15-decahydro-1H-cyclopenta[a]phenanthren-3(2H)-one], for which, in experiment [1] (setting [3]), the IC50 is greater than 1000 nM. Moreover, the inhibition at 0.001 µM in experiment [2] (setting [4]) was less than 10%. Turning to `C[C@]12CCC(=O)C=C1C(c1ccccc1)CC1C2CC[C@]2(C)C(c3cccnc3)=CCC12` (stereo partly drawn) [Compound 338, (10R,13S)-10,13-dimethyl-6-phenyl-17-(pyridin-3-yl)-6,7,8,9,10,11,12,13,14,15-decahydro-1H-cyclopenta[a]phenanthren-3(2H)-one], in experiment [1] (setting [3]), the IC50 is greater than 1000 nM. Moreover, the inhibition at 0.001 µM in experiment [2] (setting [4]) was less than 10%. On the same counts, the results for `CC1CC2C3=CC=C(c4ccc(F)nc4)[C@@]3(C)CCC2[C@@]2(C)CCNC(=O)C=C12` (stereo partly drawn) [Compound 385, (5aR,7aS)-8-(6-fluoropyridin-3-yl)-5a,7a,12-trimethyl-3,4,5,5a,5b,6,7,7a,11,12-decahydrocyclopenta[5,6]naphtho[1,2-d]azepin-2(10bH)-one] are greater than 1000 nM and 10 to 50%. Turning to `Cc1cccc(C)c1C(=O)O[C@H]1CC[C@@]2(C)C(=CCC3C4=CC=C(c5cccnc5)[C@@]4(C)CCC32)C1` (stereo partly drawn) [Compound 196, (3S,10R,13S)-10,13-dimethyl-17-(pyridin-3-yl)-2,3,4,7,8,9,10,11,12,13-decahydro-1H-cyclopenta[a]phenanthren-3-yl 2,6-dimethylbenzoate], in experiment [1] (setting [5]), the half-maximal inhibitory concentration (IC50) is greater than 1000 nM. Further, the inhibition at 0.001 µM in experiment [2] (setting [6]) is less than 10%. With `C[C@]12CCC(=NO)C=C1C(F)CC1C2CC[C@]2(C)C(c3cccnc3)=CCC12` (stereo partly drawn) [Compound 366, (10R,13S)-6-fluoro-10,13-dimethyl-17-(pyridin-3-yl)-6,7,8,9,10,11,12,13,14,15-decahydro-1H-cyclopenta[a]phenanthren-3(2H)-one oxime], in experiment [1] (setting [3]), the concentration for half-maximal inhibition (IC50) was greater than 1000 nM. Besides, in experiment [2] (setting [4]), the inhibition at 0.001 µM was 10 to 50%. On the same counts, the results for `CC1C(=O)CC[C@@]2(C)C1CC[C@@H]1[C@@H]2CC[C@]2(C)C(c3cccnc3)=CC[C@@H]12` (stereo partly drawn) [Compound 303, (10R,13S)-4,10,13-trimethyl-17-(pyridin-3-yl)-4,5,6,7,8,9,10,11,12,13,14,15-dodecahydro-1H-cyclopenta[a]phenanthren-3(2H)-one] are greater than 1000 nM and 10 to 50%. `C[C@]12CC[C@@H](NS(=O)(=O)C3CC3)CC1=CC[C@@H]1[C@@H]2CC[C@]2(C)C(c3cccnc3)=CC[C@@H]12` [Compound 228, N-((3R,10R,13S)-10,13-dimethyl-17-(pyridin-3-yl)-2,3,4,7,8,9,10,11,12,13,14,15-dodecahydro-1H-cyclopenta[a]phenanthren-3-yl)cyclopropanesulfonamide]: the IC50 in experiment [1] (setting [5]) was greater than 1000 nM. Moreover, the inhibition at 0.001 µM in experiment [2] (setting [6]) lay in the range of 10 to 50%. In the case of `CCC1CC2C(CC[C@]3(C)C(c4cccnc4)=CCC23)[C@@]2(C)CCC(=O)C=C12` (stereo partly drawn) [Compound 332, (10R,13S)-6-ethyl-10,13-dimethyl-17-(pyridin-3-yl)-6,7,8,9,10,11,12,13,14,15-decahydro-1H-cyclopenta[a]phenanthren-3(2H)-one], the IC50 in experiment [1] (setting [3]) lay within 10 to 100 nM. Besides, the inhibition at 0.001 µM in experiment [2] (setting [4]) was in the range of 10 to 50%. Regarding `CC1(C)C2=CCC3C(CC[C@]4(C)C(c5cccnc5)=CCC34)[C@@]2(C)CC/C1=N\O` (stereo partly drawn) [Compound 363, (10R,13S,E)-4,4,10,13-tetramethyl-17-(pyridin-3-yl)-4,7,8,9,10,11,12,13,14,15-decahydro-1H-cyclopenta[a]phenanthren-3(2H)-one oxime], in experiment [1] (setting [3]), the IC50 is greater than 1000 nM. In experiment [2] (setting [4]), the inhibition at 0.001 µM was less than 10%. On the same counts, the results for `C[C@]12CCC(=O)C=C1C(n1ccnn1)CC1C2CC[C@]2(C)C(c3cccnc3)=CCC12` (stereo partly drawn) [Compound 335, (10R,13S)-10,13-dimethyl-17-(pyridin-3-yl)-6-(1H-1,2,3-triazol-1-yl)-6,7,8,9,10,11,12,13,14,15-decahydro-1H-cyclopenta[a]phenanthren-3(2H)-one] are greater than 1000 nM and 10 to 50%.

As to `CC1CC2C3=CC=C(c4cncc(C(F)F)c4)[C@@]3(C)CCC2[C@@]2(C)CCNC(=O)C=C12` (stereo partly drawn) [Compound 391, (5aR,7aS)-8-(5-(difluoromethyl)pyridin-3-yl)-5a,7a,12-trimethyl-3,4,5,5a,5b,6,7,7a,11,12-decahydrocyclopenta[5,6]naphtho[1,2-d]azepin-2(10bH)-one], in experiment [1] (setting [3]), the IC50 is greater than 1000 nM. For the same compound, the inhibition at 0.001 µM in experiment [2] (setting [4]) was less than 10%.

Consider `CC1CC2C3=CC=C(c4cccnc4)[C@@]3(C)CCC2[C@@]2(C)CCN(C)C(=O)C=C12` (stereo partly drawn) [Compound 393, (5aR,7aS)-3,5a,7a,12-tetramethyl-8-(pyridin-3-yl)-3,4,5,5a,5b,6,7,7a,11,12-decahydrocyclopenta[5,6]naphtho[1,2-d]azepin-2(10bH)-one], for which the IC50 in experiment [1] (setting [7]) lay in the range of 10 to 100 nM. On the same count and under the same terms, with `C[C@]12CC[C@H]3[C@@H](CC4(CC4)C4=CC(=O)CC[C@@]43C)C1=CC=C2c1cccnc1` [Compound 351, (10R,13S)-10,13-dimethyl-17-(pyridin-3-yl)-1,7,8,9,10,11,12,13-octahydrospiro[cyclopenta[a]phenanthrene-6,1′-cyclopropan]-3(2H)-one] the figure was less than 10 nM. In the case of `C[C@]12CCC3C(CCC4CCN(S(C)(=O)=O)CC[C@@]43C)C1=CC=C2n1ccnc1` (stereo partly drawn) [Compound 489, (5aS,7aS)-8-(1H-imidazol-1-yl)-5a,7a-dimethyl-3-(methylsulfonyl)-1,2,3,4,5,5a,5b,6,7,7a,10b,11,12,12a-tetradecahydrocyclopenta[5,6]naphtho[1,2-d]azepine], the IC50 in experiment [1] (setting [7]) is greater than 1000 nM. Take `CN1CC[C@@]2(C)C(=CC1=O)CCC1C3=CC=C(c4cncc(F)c4)[C@@]3(C)CCC12` (stereo partly drawn) [Compound 392, (5aR,7aS)-8-(5-fluoropyridin-3-yl)-3,5a,7a-trimethyl-3,4,5,5a,5b,6,7,7a,11,12-decahydrocyclopenta[5,6]naphtho[1,2-d]azepin-2(10bH)-one]: the half-inhibitory concentration (IC50) in experiment [1] (setting [7]) was greater than 100 nM. On to `C=C1C[C@H]2C3=CC=C(c4cncc(F)c4)[C@@]3(C)CC[C@@H]2[C@@]2(C)CCC(=O)C=C12` [Compound 353, (10R,13S)-17-(5-fluoropyridin-3-yl)-10,13-dimethyl-6-methylene-6,7,8,9,10,11,12,13-octahydro-1H-cyclopenta[a]phenanthren-3(2H)-one], for which, in experiment [1] (setting [7]), the IC50 lay in the range of 10 to 100 nM.
